Experimental data taken from patent US8680153B2, “Method for correcting a lipid imbalance in a subject” (The Royal Institution for the Advancement of …, priority 2005, dated 2014).

Columns and labels:
[1] = cited from earlier work
ceramide levels = assay: Ceramide levels by ELISA in lung and plasma of P. aeruginosa-infected mice; format: in vivo
Procedure: Fenretinide Diet Supplementation. Examples 2 to 6: fenretinide (Sigma-Aldrich, Oakville, ON) powder was resuspended in 95% ethanol and subsequently incorporated in the Peptamen liquid diet. It was protected from light and kept at 4° C. before being given to the mice (5 mg/kg per day per mouse). Mock-treated diets were prepared similarly by adding ethanol to the Peptamen diet but omitting the fenretinide supplementation. The diet was given every morning for 28 consecutive days with specific monitoring of the quantity consumed by the mice in each cage. Examples 7 to 12: fenretinide powder was kindly provided by Dr. Robert Smith (NIH; Bethesda, Md., USA). Fenretinide was resuspended in 95% ethanol to make a 2 μg/μL concentration. Approximately 40 μL of this preparation was incorporated into the Peptamen liquid diet (5 mg/kg per day per mouse). The prepared food containing fenretinide was then stored in the dark at 4° C. for no more than 3 hours prior to being administered to the mice. To ensure that the entire drug dose was consumed, the mice were given 10 mL of fenretinide-treated Peptamen, which represents ⅔ of the daily mouse food consumption, in the late afternoon. […] During the treatment period each mouse was kept in a separate cage (including WT mice) and was monitored to ensure that the entire amount of Peptamen containing the fenretinide or with out was consumed. […]

[2] = Weight loss after P. aeruginosa lung infection; format: in vivo, mice; conditions: for Mean weight loss (% of initial weight): mean ± SEM
Procedure: Fenretinide Diet Supplementation. Examples 2 to 6: fenretinide (Sigma-Aldrich, Oakville, ON) powder was resuspended in 95% ethanol and subsequently incorporated in the Peptamen liquid diet. It was protected from light and kept at 4° C. before being given to the mice (5 mg/kg per day per mouse). Mock-treated diets were prepared similarly by adding ethanol to the Peptamen diet but omitting the fenretinide supplementation. The diet was given every morning for 28 consecutive days with specific monitoring of the quantity consumed by the mice in each cage. Examples 7 to 12: fenretinide powder was kindly provided by Dr. Robert Smith (NIH; Bethesda, Md., USA). Fenretinide was resuspended in 95% ethanol to make a 2 μg/μL concentration. Approximately 40 μL of this preparation was incorporated into the Peptamen liquid diet (5 mg/kg per day per mouse). The prepared food containing fenretinide was then stored in the dark at 4° C. for no more than 3 hours prior to being administered to the mice. To ensure that the entire drug dose was consumed, the mice were given 10 mL of fenretinide-treated Peptamen, which represents ⅔ of the daily mouse food consumption, in the late afternoon. The remaining 5 mL of Peptamen (without fenretinide) was given the following morning. Mice were treated twice a week for 4 weeks. During the treatment period each mouse was kept in a separate cage (including WT mice) and was monitored to ensure that the entire amount of Peptamen containing the fenretinide or with out was consumed. The diet for the mock-treated control group was prepared and administered similarly to that described above, by adding the same volume of ethanol to the Peptamen diet but omitting the fenretinide supplementation.
Mouse Lung Infection. Mice were anaesthetized with a combination of ketamine (7.5 mg/mL) and xylazine (0.5 mg/mL) administered intraperitoneally at a dose of 20 mL/kg of body weight. Once the mouse was successfully anaesthetized, the animal was installed under binoculars (Microscope M650, Wild Leitz, Willowdale, ON) in the vertical position and held on a restraining board by holding the animal by its upper incisor teeth (Guilbault, et al. (2005) supra). The tongue was then gently pulled to the side of the mouth and a 26-G gavage needle was inserted into the mouth and guided through the pharynx gently touching the vocal cords to see the lumen of the trachea; the needle was then introduced into the trachea to reach the lung for the bilateral injection of the 50 microliter inoculum. After inoculation, the animal regained righting reflex within an hour. A final dose of 1×10^6 P. aeruginosa was used for infection using wild-type and Cftr-KO mice. Mice were monitored 3 times daily; the maximum weight loss allowed was 15%. Mice were sacrificed by CO2 overdose.

Which results are given for `CC1=C(/C=C/C(C)=C/C=C/C(C)=C/C(=O)Nc2ccc(O)cc2)C(C)(C)CCC1` [fenretinide, all-trans-N-(4-hydroxyphenyl) retinamide]?
Generalized vascular damage in humans ([1]; clinical trials (Reynolds and Lemons 2001)): does not induce generalized vascular damage; Reversibility of side effects following discontinuation of the treatment ([1]; neuroblastoma subjects 2-21 years (Garaventa 2003)): ≤ 7 days; Subjects in whom side effects occurred ([1]; neuroblastoma subjects 2-21 years, oral once a day in 28-day courses (Garaventa 2003)): 15 of the 45; Increase in ceramide levels vs mock-treated controls (ceramide levels; P. aeruginosa-infected Cftr-KO mice): approximately 7 fold; Increase in ceramide levels vs untreated counterparts (ceramide levels; P. aeruginosa-infected WT mice): approx. 2 fold; Mean weight loss (% of initial weight) ([2]; Cftr-KO mice, day 1 post-infection): −4.0 ± 1.1 % of initial weight; Mean weight loss (% of initial weight) ([2]; Cftr-KO mice, day 2 post-infection): −12.9 ± 0.9 % of initial weight; Mean weight loss (% of initial weight) ([2]; Cftr-KO mice, day 3 post-infection): −15.3 ± 1.8 % of initial weight; Mean weight loss (% of initial weight) ([2]; Wild-type mice, day 1 post-infection): −4.8 ± 0.4 % of initial weight; Mean weight loss (% of initial weight) ([2]; Wild-type mice, day 2 post-infection): −9.9 ± 0.5 % of initial weight; Mean weight loss (% of initial weight) ([2]; Wild-type mice, day 3 post-infection): −11.1 ± 1.2 % of initial weight; Effect on mean weight loss, fenretinide-treated vs mock-treated ([2]; day 1 to day 3 post-infection): no significant difference
